The record followed here is PubChem BioAssay AID1159585 (Gregory J. Crowther, 2016).

Chain of Calcium-dependent protein kinase 1 (Plasmodium falciparum (isolate 3D7)) (P62344 whole entry, looked up): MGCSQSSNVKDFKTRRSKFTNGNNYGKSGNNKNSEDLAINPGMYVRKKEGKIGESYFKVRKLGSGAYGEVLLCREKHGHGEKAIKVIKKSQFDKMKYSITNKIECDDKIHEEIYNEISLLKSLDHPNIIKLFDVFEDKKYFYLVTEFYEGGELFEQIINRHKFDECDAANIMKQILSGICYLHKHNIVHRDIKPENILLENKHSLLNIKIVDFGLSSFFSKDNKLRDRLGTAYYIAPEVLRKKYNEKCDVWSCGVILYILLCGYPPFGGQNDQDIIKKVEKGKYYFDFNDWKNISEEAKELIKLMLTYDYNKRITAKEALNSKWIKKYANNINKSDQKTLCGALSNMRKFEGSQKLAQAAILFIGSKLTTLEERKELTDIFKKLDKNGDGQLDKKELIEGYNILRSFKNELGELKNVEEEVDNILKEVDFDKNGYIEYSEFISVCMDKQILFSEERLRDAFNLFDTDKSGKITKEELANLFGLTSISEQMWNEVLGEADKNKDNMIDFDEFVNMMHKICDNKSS

This experiment addresses Calcium-dependent protein kinase 1 (Plasmodium falciparum (isolate 3D7)) (UniProt P62344). Put plainly: PfCDPK1 kinase inhibitors, biochemical, TCAMS library (AID 1159585).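 Further: inhibitors leave more ATP so luminescence rises with inhibition.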 Particulars: recombinant PfCDPK1, Kinase-Glo ATP depletion luminescence. A general note: Kinase-Glo reads ATP consumption through a luciferase reaction.
In the case of `O=C(Nc1cccc(-c2nn3ccccc3c2-c2ccnc(Nc3ccc(NCCCN4CCOCC4)c(F)c3)n2)c1)c1c(F)cccc1F`, the half-inhibitory concentration (IC50) (commonly the point on the concentration scale where inhibition reaches its midpoint) was 38 nM. For the molecule `CNC(=O)c1ccccc1Nc1nc(Nc2ccc(CCN3CCN(C)CC3)cc2)ncc1Cl`, the 50% inhibitory concentration (IC50) was 47 nM. For `CCn1c(-c2nonc2N)nc2c(-c3cccc(Cl)c3)ncc(OCCCNCc3cnc(C)nc3N)c21` the value was 271 nM; for `NCCNC(=O)c1ccc(-c2cnc3[nH]cc(-c4ccc(C(N)=O)cc4)c3c2)cc1`, 24 nM; for `COCCNCc1cccc(-c2ccc3c(Nc4ccc(Oc5cccnc5)cc4)ccnc3c2)c1`, 913 nM. For the molecule `CN1CCC=C(C(=O)NCC(C)(C)c2nc(-c3ccc(Cl)c(O)c3)c(-c3ccncc3)[nH]2)C1`, the concentration for half-maximal inhibition (IC50) is 213 nM. To `COCCNCc1cccc(-c2ccc3c(Nc4cc(O)c(Cl)cc4F)ccnc3c2)c1` belongs 436 nM; to `CC(C)(CNCc1ccc(Cl)cc1)c1nc(-c2ccc(Cl)c(O)c2)c(-c2ccncc2)[nH]1`, 257 nM; to `COc1ccc(C(=O)NCC(C)(C)c2nc(-c3ccc(Cl)c(O)c3)c(-c3ccncc3)[nH]2)cc1OCCN(C(C)C)C(C)C`, 387 nM. To `CCn1c(-c2nonc2N)nc2c(-c3cccc(NC(=O)Nc4ccc(Cl)cc4)c3)ncc(OCCCN)c21` belongs 44 nM; to `Cc1nc(-c2cccc(Nc3ccnc4cc(-c5nccs5)ccc34)c2)no1`, 191 nM. On to `NCC1(c2nc(-c3ccc(Cl)c(O)c3)c(-c3ccncc3)[nH]2)CCCCC1`, for which the IC50 was 14 nM. Take `CCCN1CCN(CCNC(=O)c2cccc(Nc3nccc(Nc4ccc(Oc5ccccc5)cc4)n3)c2)CC1`: the IC50 is 336 nM. `CCn1c(-c2nonc2N)nc2c(-c3cccc(Cl)c3)ncc(OCCCNCCc3cnc[nH]3)c21`: the half-inhibitory concentration (IC50) was 138 nM.

`CC(C)(CNCCOc1ccc(Cl)cc1)c1nc(-c2ccc(Cl)c(O)c2)c(-c2ccnc(N)n2)[nH]1`: the 50% inhibitory concentration (IC50) was 755 nM. Turning to `CC(C)(CNCc1ccc(F)c(F)c1)c1nc(-c2ccc(Cl)c(O)c2)c(-c2ccnc(N)n2)[nH]1`, the half-maximal inhibitory concentration (IC50) is 469 nM. `O=C(NCCCN1CCOCC1)c1cccc(Nc2nccc(Nc3ccc(Oc4ccccc4)cc3)n2)c1`: the IC50 is 180 nM. In the case of `O=c1[nH]ccc2nc(N[C@@H]3CCCNC3)nc(Nc3ccc(S(=O)(=O)N4CCOCC4)cc3)c12`, the IC50 is 146 nM. Turning to `CCn1c(-c2nonc2N)nc2c(-c3ccccc3)ncc(OCCCNCCCN3CCOCC3)c21`, the half-maximal inhibitory concentration (IC50) is 42 nM. For the molecule `CCOC(=O)c1cccc(NC(=O)Nc2cccc(-c3ncc(OCCCN)c4c3nc(-c3nonc3N)n4CC)c2)c1`, the IC50 was 294 nM.

Take `COc1ccc(CNCC(C)(C)c2nc(-c3ccc(Cl)c(O)c3)c(-c3ccncc3)[nH]2)cc1`: the IC50 is 186 nM.

`CN1CCN(c2ccc(Nc3nccc(-c4cnn5ncccc45)n3)cc2Cl)CC1`: the IC50 was 232 nM. Regarding `Cc1ccc(Nc2nc3cc(N(C)c4ccnc(Nc5cccc(CCS(C)(=O)=O)c5)n4)ccc3n2C)cc1`, the IC50 is 160 nM.

With `COc1cccc(CNCC(C)(C)c2nc(-c3ccc(Cl)c(O)c3)c(-c3ccncc3)[nH]2)c1`, the 50% inhibitory concentration (IC50) is 275 nM.

Take `CCn1c(-c2nonc2N)nc2c(-c3cccc(NC(=O)Nc4ccccc4OC)c3)ncc(OCCCN)c21`: the IC50 is 32 nM. `CC(C)(CNCc1ccc(OC(F)(F)F)cc1)c1nc(-c2ccc(Cl)c(O)c2)c(-c2ccncc2)[nH]1`: the IC50 was 438 nM. As for `CN(C)CCN(C)Cc1nc(-c2ccc3c(Nc4ccc(Oc5ccccc5)cc4)ccnc3c2)cs1`, the IC50 was 915 nM. In the case of `Cc1cccc(Nc2nc(N[C@@H]3CCCNC3)nc3cc[nH]c(=O)c23)c1`, the IC50 is 23 nM. For the molecule `O=C(NCCN1CCCCC1)c1ccc(Nc2nccc(Nc3ccc(Oc4ccccc4)cc3)n2)cc1`, the 50% inhibitory concentration (IC50) was 103 nM.

For the molecule `O=C(NCCN1CCC(c2ccncc2)CC1)c1cccc(Nc2nccc(Nc3ccc(Oc4ccccc4)cc3)n2)c1`, the concentration for half-maximal inhibition (IC50) was 220 nM.

Take `O=C(NCCCN1CCCCC1)c1cccc(Nc2nccc(Nc3ccc(Oc4ccccc4)cc3)n2)c1`: the concentration for half-maximal inhibition (IC50) is 243 nM.

For the molecule `NS(=O)(=O)c1cccc(Nc2nc(N[C@@H]3CCNC3)nc3cc[nH]c(=O)c23)c1`, the IC50 was 83 nM.

As for `CN1CCN(Cc2ccc(-c3ccc4c(Nc5cc(O)c(Cl)cc5F)ccnc4c3)o2)CC1`, the concentration for half-maximal inhibition (IC50) was 131 nM. To `Cc1cc(F)ccc1-c1nc(Nc2ccncc2)c2ccn(C)c2n1` belongs 40 nM; to `CN1CCN(c2ccc(Nc3nccc(-c4c(-c5cccc(NC(=O)c6c(F)cccc6F)c5)nn5ccccc45)n3)cc2)CC1`, 35 nM; to `COc1ccc(Nc2ncc3c(-c4cccc(NC(=O)Cc5cccc(O)c5)c4)c[nH]c3n2)cc1OC`, 312 nM. For `OC1CCC(Nc2ccc3ncc(-c4ccc(Cl)cc4)n3n2)CC1` (configuration not stated) the value was 503 nM.
